Source: article PMC6150239 (Molecules : A Journal of Synthetic Chemistry and Natural …, 2017)

How the values were obtained:
[1] = Human liver microsome stability assay; assay type: in vitro ADME; conditions: human liver microsomes, 1 μM, 37 °C; CLint = k/P
[2] = parameters: method as in PMID 27079428; conditions: cited from earlier work

Row | Structure (SMILES) | CLint (intrinsic clearance) [1] [mL/min/mg Protein] | t1/2 [2] [h]
1 | C[C@]12CC[C@H]3[C@@H](CCC4=CC(=O)CC[C@@]43C)[C@@H]1CC[C@@H]2O [Testosterone, testosterone, reference compound] | 0.0727 | 
2 | [2H]C([2H])([2H])Oc1cc2c(cc1OC([2H])([2H])[2H])C1CC(=O)C(CC(C)C)CN1CC2 (stereo not drawn) [deutetrabenazine] |  | 8.6
3 | COc1cc2c(cc1OC)C1CC(=O)C(CC(C)C)CN1CC2 (stereo not drawn) [tetrabenazine] |  | 4.8
